Broadly, the IC50 is the point on the concentration scale where inhibition reaches its midpoint.

In assay [1] the test system is platelets (platelet-rich plasma), agglutination induced by collagen. Kind of assay: Inhibition of platelet agglutination induced by collagen (rat PRP, aggligometer). The format is cell-based. Conditions: 37° C., collagen 0.14 mg/ml, from inhibition ratio for maximum thrombotic agglutination. The procedure:
(§1) Blood was collected from the abdominal aorta of a sacrificed rat. The obtained blood was then mixed with a solution of 3.9% sodium citrate at a ratio of one part by volume of sodium citrate solution to nine parts by volume of the blood. The mixture was […] at 116×g for 10 minutes to give a platelet-rich plasma (PRP). The supernatant was further centrifuged at 1,638×g for 10 minutes to give a platelet-poor plasma (PPP). The PRP was diluted with the PPP so as to give a platelet concentration of […].
(§2) The agglutination of platelets was determined with an aggligometer (RINKADENKI HUSM type). Sample solutions of 25 μl were obtained by dissolving each test compound in methanol and adding the resulting solution to a physiological saline solution so as to give a final methanol concentration of 1%. These sample solutions were then added to 225 μl of PRP preliminarily maintained at 37° C. while stirring at 800 rpm. Three minutes thereafter, 50 μl of an agglutination inducer was added thereto while continuously stirring.
Collagen, when employed as the agglutination inducer, was added at a concentration of 0.14 mg/ml. The 50% inhibition concentration of each test compound was calculated from the inhibition ratio thereof for the maximum thrombotic agglutination.

For assay [2], the system named is platelets (platelet-rich plasma), agglutination induced by arachidonic acid. Kind of assay: Inhibition of platelet agglutination induced by arachidonic acid (rat PRP, aggligometer). It is filed as cell-based. The conditions noted are these: 37° C., arachidonic acid 1 mM, 50% effective concentration from onset time of agglutination vs control group. The procedure:
as §1, §2
Arachidonic acid, when employed as the agglutination inducer, was added at a concentration of 1 mM. The 50% effective concentration of each test compound was calculated by comparing the onset time from the addition of the arachidonic acid to the initiation of the agglutination with that of the control group.

Take `CCCC=CC(=O)NCCSSCCNC(=O)C=CCCC` [Compound 2, [SCH2 CH2 NH--COCH=CH(CH2)2 CH3]2]: the IC50 is 4 µM in assay [1] and 6.7 µM in assay [2].

As to `CCCCC=CC(=O)NCCSSCCNC(=O)C=CCCCC` [Compound 3, [SCH2 CH2 NH--COCH=CH(CH2)3 CH3]2], the values for the IC50 in assay [1] and in assay [2] were 26 µM and 17 µM, respectively.

With `CCCCCC=CC(=O)NCCSSCCNC(=O)C=CCCCCC` [Compound 4, [SCH2 CH2 NH--COCH=CH(CH2)4 CH3]2], the IC50 in assay [1] stood at 290 µM; in assay [2], 135 µM.

Turning to `CCC=CC(=O)NCCSSCCNC(=O)C=CCC` [Compound 1, [SCH2 CH2 NH--COCH=CHCH2 CH3]2], the IC50 in assay [1] worked out at 15 µM; in assay [2], 13 µM.

Source of the values: patent publication US4916130A, “Platelet agglutination-inhibiting agent” (Green Cross Corporation, priority 1987, dated 1990).
